Reference: US20240341337A1, “METHOD FOR CREATING MASKING COMPOSITIONS” (GIVAUDAN SA, priority 2021, published 2024)

Tests used:
[1] = Antagonist screening for pea protein off-notes on VAS aroma blending device, off-note Ex. A; set-up: key to Off-note Ex. A masking effect: +++ being most effective; ++ in the middle; + some effect; +/− being in between; − being no effect; settings: off-note channel 1, 0.01% in MCT, flow 300; antagonist channel conc. as in Table 2 c2
Experimental: (§1) In one embodiment, the screening step is carried out using the above described aroma blending device as follows: each off-note molecule(s) identified from a target non-animal derived protein may be loaded into its own individual cartridge or channel (for example, propyl-iso-2-methoxy-3-pyrazine may be loaded into cartridge/channel #1, and isobutyl-3-methoxy-2-pyrazine may be loaded into cartridge/channel #2, etc.); next, the target non-animal protein is diluted as will be discussed below and may be loaded into its own individual cartridge/channel, for example, cartridge/channel #6 to act as the control or base; next, each antagonist candidate molecule that has been identified may be loaded into its own individual cartridge/channel (for example, molasses distillate may be loaded into cartridge/channel #7 and bisabolene may be loaded into cartridge/channel #8, etc). Next, the gas flow on the off-note molecule containing cartridge/channel is first opened, followed by one of the antagonist candidate molecule containing cartridges/channels. The intensity of the flow of the antagonist candidate molecule containing cartridge/channel is adjusted until the off-note is canceled or neutralized by the antagonist candidate molecule, i.e neutralization concentration. This process is repeated for each antagonist candidate molecule containing cartridges/channels so that all of the potential antagonist candidate molecules are screened.
(§2) Selection and screening of the antagonist molecules was performed using the VAS aroma blending device. As described above, each off-note molecule from Table 1 was loaded into its own individual cartridge or channel as shown in Table 2 (#'s 1-5). Each off-note molecule was diluted with medium-chain triglyceride (“MCT”) prior to loading into the cartridge/channel. Next, the target non-animal protein was diluted at 2% plus 0.1% xanthan gum in water with a small amount of antifoam agent (0.01%) and was placed into a cartridge/channel (#21). Each antagonist candidate molecule was then diluted with MCT in a pre-determined concentration and was loaded into a cartridge/channel as shown in Table 2 (#'s 6-20). Next, the gas flow (between 0 to 500 ml/min) on the off-note molecule containing cartridge/channel is first opened, followed by one of the antagonist candidate molecule containing cartridges/channels. The intensity of the flow of the antagonist candidate molecule containing cartridge/channel is adjusted until the off-note is canceled or neutralized by the antagonist candidate molecule, i.e neutralization concentration. This process is repeated for each antagonist candidate molecule containing cartridges/channels so that all of the potential antagonist candidate molecules are screened.
(§3) The numeric number in the column refers the flow rate on VAS aroma blending device.

[2] = Antagonist screening for pea protein off-notes on VAS aroma blending device, off-note Ex. C; set-up: key to Off-note Ex. C masking effect: +++ being most effective; ++ in the middle; + some effect; +/− being in between; − being no effect; settings: off-note channel 3, 0.01% in MCT, flow 185; antagonist channel conc. as in Table 2 c2
Experimental: as §1, §2, §3

[3] = Antagonist screening for pea protein off-notes on VAS aroma blending device, off-note Ex. D; set-up: key to Off-note Ex. D masking effect: +++ being most effective; ++ in the middle; + some effect; +/− being in between; − being no effect; settings: off-note channel 4, 0.10% in MCT, flow 15; antagonist channel conc. as in Table 2 c2
Experimental: as §1, §2, §3

[4] = Antagonist screening for pea protein off-notes on VAS aroma blending device, off-note Ex. B; set-up: key to Off-note Ex. B masking effect: +++ being most effective; ++ in the middle; + some effect; +/− being in between; − being no effect; settings: off-note channel 2, 0.001% in MCT, flow 150; antagonist channel conc. as in Table 2 c2
Experimental: as §1, §2, §3

[5] = Antagonist screening for pea protein off-notes on VAS aroma blending device, off-note Ex. E; set-up: key to Off-note Ex. E masking effect: +++ being most effective; ++ in the middle; + some effect; +/− being in between; − being no effect; settings: off-note channel 5, 1.0% in MCT, flow 150; antagonist channel conc. as in Table 2 c2
Experimental: as §1, §2, §3

Compound	Off-note Ex. A Flow Rate (antagonist channel) [1]	Off-note Ex. A masking effect [1]	Off-note Ex. C Flow Rate (antagonist channel) [2]	Off-note Ex. C masking effect [2]	Off-note Ex. D Flow Rate (antagonist channel) [3]	Off-note Ex. D masking effect [3]	Off-note Ex. B Flow Rate (antagonist channel) [4]	Off-note Ex. B masking effect [4]	Off-note Ex. E Flow Rate (antagonist channel) [5]	Off-note Ex. E masking effect [5]
CCOC(=O)CCC(=O)OCC [Diethyl Succinate]	250 mL/min	++	200 mL/min	+/−	200 mL/min	++	300 mL/min	++		
Bisabolene		−		−		−		−	150 mL/min	+
CCOC(=O)C(C)O (stereo not drawn) [Ethyl lactate]	90 mL/min	+++	200 mL/min	++	200 mL/min	++	100 mL/min	+++		
C=CCOC(=O)CCC1CCCCC1 [Ally1 Cyclohexyl Proprionate]	165 mL/min	+/−	100 mL/min	+++		−		−	175 mL/min	++
CCCCCCCCCCCCCCCC(=O)OCC [Ethyl Palmitate]		−	35 mL/min	++		−	100 mL/min		300 mL/min	+
Caryophyllene	100 mL/min	+++		−	150 mL/min	++		+	200 to 225 mL/min	+
